Reference: patent publication US9521847B2, “Synergistic weed control from applications of pyridine carboxylic acid herbicides and synthetic auxin herbicides and/or auxin transport inhibitors” (Dow AgroSciences LLC, priority 2014, dated 2016)

Key:
spring wheat (TRZAS) = experiment: Small plot field trial (Canada), crop phytotoxicity (% visual injury); format: in vivo, Triticum aestivum; conditions: 560 g ae/ha alone
Text: (§1) Small plot field trials were established in Canada to evaluate efficacy and crop safety of Compound 7 with 2,4-D EHE. Trials were established as randomized complete blocks with 3-4 replicates. Individual plots were 2-3 meters (m) wide and 8-10 m long. Applications were made with backpack or tractor-mounted sprayers delivering a spray volume output of 100 liters per hectare (L/ha) using pressurized carbon dioxide (CO2) as a propellant. Compound 7 was combined with 2,4 D EHE (660 g ae/L EC formulation) and applied to spring wheat (TRZAS), and the phytotoxicity of the herbicidal compositions was measured. In addition, the efficacy of the herbicidal composition on Canadian thistle ([…], Cirsium arvense), kochia (KCHSC, Kochia scoparia), mallow (MALPU, Marva pusilla), wild buckwheat (POLCO, Polygonum convolvulus), and lady's thumb (POLPE, Polygonum persicaria) was evaluated.

[1] = tested on: kochia (KCHSC, Kochia scoparia); experiment: Small plot field trial (Canada), % visual injury; format: in vivo; conditions: 560 g ae/ha alone, 46-64 DAA
Description: as §1, with “Trials” for “Small plot field trials were established in Canada to evaluate efficacy and crop safety of Compound 7 with 2,4-D EHE. Trials”, “kochia (KCHSC, Kochia” left out, “([…]” for “(MALPU, Marva”

[2] = tested on: lady's thumb (POLPE, Polygonum persicaria); experiment: Small plot field trial (Canada), % visual injury; format: in vivo; conditions: 560 g ae/ha alone, 14-16 DAA
Description: as §1, with “Trials” for “Small plot field trials were established in Canada to evaluate efficacy and crop safety of Compound 7 with 2,4-D EHE. Trials”, “kochia (KCHSC, Kochia” left out, “([…]” for “(MALPU, Marva”

[3] = tested on: wild buckwheat (POLCO, Polygonum convolvulus); experiment: Small plot field trial (Canada), % visual injury; format: in vivo; conditions: 560 g ae/ha alone, 15 DAA
Description: as §1, with “Trials” for “Small plot field trials were established in Canada to evaluate efficacy and crop safety of Compound 7 with 2,4-D EHE. Trials”, “kochia (KCHSC, Kochia” left out, “([…]” for “(MALPU, Marva”

[4] = tested on: CIRAR = Cirsium arvense (Canadian thistle); experiment: Small plot field trial (Canada), % visual injury; format: in vivo; conditions: 560 g ae/ha alone, 46-64 DAA
Description: as §1, with “Trials” for “Small plot field trials were established in Canada to evaluate efficacy and crop safety of Compound 7 with 2,4-D EHE. Trials”, “kochia (KCHSC, Kochia” left out, “([…]” for “(MALPU, Marva”

[5] = tested on: MALPU = Malva pusilla (mallow); experiment: Small plot field trial (Canada), % visual injury; format: in vivo; conditions: 560 g ae/ha alone, 26-33 DAA
Description: as §1, with “Trials” for “Small plot field trials were established in Canada to evaluate efficacy and crop safety of Compound 7 with 2,4-D EHE. Trials”, “kochia (KCHSC, Kochia” left out, “([…]” for “(MALPU, Marva”

[6] = tested on: blackgrass (Alopecurus myosuroides, ALOMY); experiment: Greenhouse postemergence trial, % visual injury; format: in vivo; conditions: 140 g ae/ha
[7] = tested on: kochia (KCHSC, Kochia scoparia); experiment: Patio postemergence trial, % visual injury; format: in vivo; conditions: 280 g ae/ha alone, 20-22 d
Description: (§2) The plants were grown for 7-36 days (d) on a fenced, open-air patio. Nutrients and water were added on a regular basis.
(§3) Temperatures and photoperiods were dependent on the natural weather conditions during the trials. Weather conditions during trials were conducive for plant growth and development.

[8] = tested on: pigweed (AMARE, Amaranthus retroflexus); experiment: Patio postemergence trial, % visual injury; format: in vivo; conditions: 280 g ae/ha alone, 20-22 d
Description: as §2, §3

[9] = tested on: large crabgrass (Digitaria sanguinalis, DIGSA); experiment: Greenhouse postemergence trial, % visual injury; format: in vivo; conditions: Digitaria sanguinalis, post-emergence; DIGSA, 5 g ae/ha; read-out: % visual injury, Obs
[10] = tested on: barnyardgrass (Echinochloa crus-galli, ECHCG); experiment: Greenhouse postemergence trial, % visual injury; format: in vivo
[11] = tested on: soybean (Glycine max, GIAMA); experiment: Greenhouse postemergence trial, % visual injury; format: in vivo; conditions: GLXMA
[12] = tested on: brown mustard (Brassica juncea, BRSJU); experiment: Greenhouse postemergence trial, % visual injury; format: in vivo
[13] = tested on: rutabaga (Brassica napus var. napobrassica, BRSNA); experiment: Greenhouse postemergence trial, % visual injury; format: in vivo
[14] = tested on: Chinese kale (Brassica alboglabra, BRSAG); experiment: Greenhouse postemergence trial, % visual injury; format: in vivo; conditions: for % visual injury, Obs: BRSAG, compound 1 (EC) 5 g ae/ha
[15] = tested on: turnip (Brassica rapa, BRSRR); experiment: Greenhouse postemergence trial, % visual injury; format: in vivo; conditions: for % visual injury, Obs: BRSRR, compound 1 (EC) 5 g ae/ha
[16] = 5 g ae/ha alone (compound 1 as EC), 20-22 d

CCCCC(CC)COC(=O)COc1ccc(Cl)cc1Cl (centres unmarked) [2,4-D EHE, 2-ethylhexyl (2,4-dichlorophenoxy)acetate, reference compound]
% visual injury Obs (spring wheat (TRZAS); 6-8 DAA): 3%
% visual injury Obs (spring wheat (TRZAS); 14-16 DAA): 0%
% visual injury Obs [1]: 25%
% visual injury Obs [2]: 55%
% visual injury Obs [3]: 51%
% visual injury Obs [4]: 65%
% visual injury Obs [5]: 74%
% visual injury, Obs [6]: 0%
% visual injury Obs [7]: 10%
% visual injury Obs [8]: 50%

Nc1c(F)c(-c2ccc3cc[nH]c3c2F)nc(C(=O)O)c1Cl [compound 1]
pest or weed control at 5 g/ha [9]: 0%
% visual injury, Obs ([10]; ECHCG, 5 g ae/ha): 65%
% visual injury (Obs) ([10]; compound 1 (EC) 5 g ae/ha): 65%
% visual injury, Obs ([11]; 5 g ae/ha): 95%
% visual injury, Obs ([11]; 10 g ae/ha): 100%
% visual injury Obs [12, 16]: 60%
% visual injury, Obs ([12]; BRSJU, compound 1 (EC) 5 g ae/ha, Table 62): 60%
% visual injury Obs [13, 16]: 65%
% visual injury, Obs ([13]; BRSNA, compound 1 (EC) 5 g ae/ha, Table 63): 65%
% visual injury Obs [14, 16]: 15%
% visual injury, Obs ([14]; Table 62): 15%
% visual injury, Obs ([14]; Table 63): 15%
% visual injury, Obs ([15]; Table 62): 50%
% visual injury, Obs ([15]; Table 63): 50%
% visual injury (Obs) ([15]; compound 1 SC 2.5 g ae/ha): 45%
% visual injury (Obs) ([15]; compound 1 SC 5 g ae/ha): 62%
